# Measurements published in US12180145B2, “Fused cyclooctyne compounds and their use in metal-free click reactions” (Synaffix B.V., priority 2010, dated 2024).
# Legend:
# [1] = prior art cyclooctynes; cited from earlier work
# [2] = Reaction kinetics of cycloaddition (SPAAC) with benzyl azide, followed by proton NMR; assay type: physicochemical
# Text: In a preferred embodiment, a compound of the Formula (IIa), (IIb) and/or (IIc), or a conjugate thereof as described above, is reacted with a compound comprising a 1,3-dipole or a 1,3-(hetero)diene. For example the cycloaddition of (IIa) with benzyl azide in aqueous conditions proceeds rapidly and cleanly to the corresponding triazole adducts with excellent reaction kinetics (k=0.09-0.28 M^−1 s^−1, depending on the solvent). […] Consequently, a mixture of the exo- and endo-compounds according to the invention may be applied in some applications, avoiding the need for separation of the exo- and endo-compounds and even further simplifying the synthesis of the compounds according to the invention.
# The reaction kinetics for cycloaddition with the prototypical azide benzyl azide were investigated. Thus, compound endo-IIa.2 was dissolved in a 3:1 mixture of CD3CN and D2O and mixed with benzyl azide at a final concentration of 18 mM. […] A significant solvent effect was noticed because the same cycloaddition reaction in a 1:2 mixture of CD3CN and D2O gave rate constants of 0.28 and 0.25 M^−1 s^−1 for endo-IIa.2 and exo-IIa.2, respectively.
# [3] = 3:1 mixture of CD3CN and D2O, final concentration 18 mM
SMILES,reaction rate constant k of cycloaddition with azide [1],second-order rate constant of cycloaddition with benzyl azide ([2]; 1:2 mixture of CD3CN and D2O),"second-order rate constant of cycloaddition with benzyl azide [2, 3]"
OC1Cc2ccccc2C#Cc2ccccc21 (stereo not drawn) [DIBO],0.12 M⁻¹ s⁻¹,,
O=C(O)CC1CCCCC#CC1(F)F (stereo not drawn) [DIFO3],≤ 0.076 M⁻¹ s⁻¹,,
"OC[C@H]1[C@H]2CCC#CCC[C@@H]12 [endo-IIa.2, endo-9-(hydroxymethyl)bicyclo[6.1.0]non-4-yne]",,0.28 M⁻¹ s⁻¹,0.12 M⁻¹ s⁻¹
"OCC1C2CCC#CCCC12 (stereo not drawn) [exo-IIa.2, 9-(hydroxymethyl)bicyclo[6.1.0]non-4-yne]",,0.25 M⁻¹ s⁻¹,0.10 M⁻¹ s⁻¹
